US10570156B2, “Substituted imidazo[1,2-a]pyridines as PDE-10 inhibitors” (SUNOVION PHARMACEUTICALS INC., priority 2011, dated 2020)

Target: recombinant human PDE-10 enzyme (Homo sapiens (Human), UniProt Q9Y233)
Assay: human PDE-10 inhibition assay (IMAP PDE Fluorescence Polarization enzyme assay)
Type: biochemical
Settings: Fluorescein-labeled cAMP/cGMP substrate, 40-minute incubation at 37° C.
Protocol: In one embodiment, the compounds provided herein were assayed for their ability to inhibit human PDE-10A. In one embodiment, the activities of the compounds were determined using the Molecular Devices IMAP PDE Fluorescence Polarization assay using recombinant human PDE-10 enzyme expressed in a baculoviral system. Briefly, 10 μL of a compound (0.2 nM-20 μM) was added to either a 96-well half area black plate or a 384-well black plate along with 10 μL of Fluorescein-labeled cAMP/cGMP substrate as per manufacturer's instructions and 10 μL of PDE enzyme (activity 0.1 U). Following a 40-minute incubation at 37° C., 60 μL of IMAP binding reagent was added. The plate was then read on a Perkin Elmer Victor (480-535 nm). The data was analyzed using Prism Software (GraphPad Inc, San Diego, Calif.).

Chain of recombinant human PDE-10 enzyme (Q9Y233 whole entry): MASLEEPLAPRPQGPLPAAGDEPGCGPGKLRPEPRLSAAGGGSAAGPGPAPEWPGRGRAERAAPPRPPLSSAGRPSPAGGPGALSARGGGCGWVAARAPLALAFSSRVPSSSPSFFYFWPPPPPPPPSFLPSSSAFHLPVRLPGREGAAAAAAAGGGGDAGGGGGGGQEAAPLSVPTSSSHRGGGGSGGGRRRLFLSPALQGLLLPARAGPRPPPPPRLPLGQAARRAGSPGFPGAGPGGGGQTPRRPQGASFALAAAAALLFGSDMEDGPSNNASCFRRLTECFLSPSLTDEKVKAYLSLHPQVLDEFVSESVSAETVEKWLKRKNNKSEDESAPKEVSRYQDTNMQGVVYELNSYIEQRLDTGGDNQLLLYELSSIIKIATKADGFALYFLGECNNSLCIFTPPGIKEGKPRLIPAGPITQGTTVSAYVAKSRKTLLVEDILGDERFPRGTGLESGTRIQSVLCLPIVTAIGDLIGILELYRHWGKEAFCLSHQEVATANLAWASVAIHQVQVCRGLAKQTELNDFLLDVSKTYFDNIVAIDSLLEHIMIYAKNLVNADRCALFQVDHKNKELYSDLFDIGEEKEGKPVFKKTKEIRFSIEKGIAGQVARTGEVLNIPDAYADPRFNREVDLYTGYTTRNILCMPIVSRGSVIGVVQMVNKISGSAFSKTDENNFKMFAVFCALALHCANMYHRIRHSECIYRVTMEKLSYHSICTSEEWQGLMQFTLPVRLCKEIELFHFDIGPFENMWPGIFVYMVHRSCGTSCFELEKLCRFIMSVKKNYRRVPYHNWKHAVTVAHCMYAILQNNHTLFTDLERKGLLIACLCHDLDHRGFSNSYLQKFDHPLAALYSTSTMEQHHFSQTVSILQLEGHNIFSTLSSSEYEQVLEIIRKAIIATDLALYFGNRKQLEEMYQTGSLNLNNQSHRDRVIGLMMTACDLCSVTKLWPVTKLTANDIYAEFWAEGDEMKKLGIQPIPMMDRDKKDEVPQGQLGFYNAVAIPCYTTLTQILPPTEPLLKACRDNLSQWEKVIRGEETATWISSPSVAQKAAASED

With Cc1ncc(C)n2nc(CCc3nc4c(C)ncc(C)n4n3)nc12 [Compound 2] the IC50 was over 500 nM.
